Structures are written as SMILES. Calls of active or inactive are those of the source. The rule behind the calls is not given here.

Data on four compounds can be found in ChEMBL document CHEMBL3272321, “Preliminary biological studies of certain amino acid analogues” (J Med Chem, 1976).

Data set [1] can be described thus: Retardation factor, Rf of the compound by paper chromatographic analysis. In kind it is physicochemical.
Data set [2] has as its system Escherichia coli. The data set is described as follows: Bacteriostatic activity against Escherichia coli 9723 after 19 hrs by spectrophotometric analysis. Format: functional.
The subject of data set [3] is Escherichia coli. The data set is described as follows: Bacteriostatic activity against Escherichia coli 9723 after 8 hrs by spectrophotometric analysis. In kind it is functional.
Data set [4] deals with Mus musculus. As to the kind of experiment: Toxicity in albino mouse at 400 mg/kg, ip qd for 7 days measured after 7 days. Format: organism-based. The arrangement: dose 400 mg/kg, route intraperitoneal. Particulars: in vivo, 168 h.
The test system of data set [5] is Escherichia coli. The data set is described as follows: Bacteriostatic activity against Escherichia coli 9723 at 5 to 15 X 10^-5 mole/10 ml after 5 to 25 hrs by spectrophotometric analysis. In kind it is functional, organism-based.
Data set [6] can be described thus: Drug excretion in albino mouse feces at 2 mg, sc after 24 hrs. Format: ADME, organism-based. Particulars: faeces, read-out: Drug excretion.
The species named for data set [7] is Mus musculus. The data set is described as follows: Toxicity in albino mouse assessed as tissue damage. The note with it: in vivo. Format: organism-based.
Data set [8] has as its system Escherichia coli. As to the kind of experiment: Bacteriostatic activity against Escherichia coli 9723 at 5 to 15 X 10^-5 mole/10 ml after 5 to 25 hrs by spectrophotometric analysis in presence of L-phenylalanine. Format: functional, organism-based.
Data set [9] in a line: Drug excretion in albino mouse urine at 2 mg, sc after 24 hrs. Format: ADME, organism-based. The note with it: read-out: Drug excretion.
The test system of data set [10] is Escherichia coli. As to the kind of experiment: Bacteriostatic activity against Escherichia coli 9723 at 5 to 15 X 10^-5 mole/10 ml after 5 to 25 hrs by spectrophotometric analysis in presence of L-methionine. In kind it is functional, organism-based.
The test system of data set [11] is Escherichia coli. As to the kind of experiment: Bacteriostatic activity against Escherichia coli 9723 at 5 to 15 X 10^-5 mole/10 ml after 5 to 25 hrs by spectrophotometric analysis in presence of D-methionine. Format: functional, organism-based.

On to `CC[C@](N)(Cc1ccccc1)C(=O)O`, for which, in data set [1], the Rf is listed as 0.77. The GI90 worked out at 0.005 M in the data set with Escherichia coli [2] and 0.0025 M with Escherichia coli [3]. Besides, the Activity entry with Mus musculus [4] and in the data set listed under Mus musculus [7] was “Non-toxic” each time. Besides, the outcome in the data set on Escherichia coli [5] was Active. The dose excreted at 24 h in data set [6] was 2.1%; in data set [9], 97.9%. Further, the result with Escherichia coli [8] was inactive.

The compound `CC(N)(C(=O)O)C1CC1` (stereo not given) returned a Rf in [1] of 0.56. Further, the Activity entry in the data set with Mus musculus [4] and in the data set filed under Mus musculus [7] was “Non-toxic” each time.

With `NC(C(=O)O)(C1CC1)C1CC1`, the Rf in [1] stood at 0.64. Further, the Activity entry in the data set on Mus musculus [4] and in the data set listed under Mus musculus [7] was “Non-toxic” in each case.

Take `C=CCCC(C)(N)C(=O)O` (stereo not given): the result in the data set with Escherichia coli [10] and with Escherichia coli [11] was inactive. Besides, the Rf in data set [1] was found to be 0.71. In addition, the values for the GI90 in the data set with Escherichia coli [2] and in the data set with Escherichia coli [3] were 0.01 M and 0.0013 M, respectively. Also, the Activity entry in the data set on Mus musculus [4] and in the data set filed under Mus musculus [7] was “Non-toxic” throughout. The result with Escherichia coli [5] was Active. The dose excreted at 24 h worked out at 2.2% in data set [6] and 97.6% in [9].
